Results published in patent US20250179059A1 (The Regents of the University of California, priority 2021, published 2025).

Legend:
[1] = target: T1, human BRD4 bromodomain II (Homo sapiens, UniProt O60885); assay: Bromodomain binding assay (AlphaScreen), BRD4 BDII; conditions: AlphaScreen assay, Table C2; read-out: BRD4 BDII IC50
T1 construct: human BRD4 bromodomain II [based on Genbank NM_058243, residues 349-460]; host or cells: E. coli
How it was run: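 AlphaScreen competition: His6-BRD4 BDI (aa 44-170) or BDII (aa 349-460) vs biotin-H4(1-21) K5/K8/K12/K16Ac peptide; Ni-chelate acceptor/streptavidin donor beads. HEPES pH 7.5, NaCl, CHAPS, BSA, 1% DMSO; RT. 10-pt 3-fold titration, % peptide binding fitted → IC50.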

[2] = system: human SKM-1 acute myeloid leukemia cells; assay: SKM-1 antiproliferation cell-based assay (ATPlite); conditions: Homo sapiens, SKM-1, 96 h, SKM-1 antiproliferation assay, 4 days, Table C2
How it was run: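 Log-phase cells in RPMI 1640/15% FBS were seeded at 34722 cells/mL and exposed for 4 days to nine-concentration DMSO serial dilutions in triplicate. Viability was read as ATP luminescence (ATPlite 1step), and IC50 values came from variable-slope non-linear regression.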

| Structure (SMILES) | IC50 [1] [nM] | GI50 [2] [nM] |
| --- | --- | --- |
| Cn1ccn(-c2ccc(-c3cc(F)cc(-c4ccnc(-c5cccnc5)c4)c3O)cc2Cl)c1=O [Example 480, 1−(3′-([2,3′-bipyridin]-4-yl)-3-chloro-5′-fluoro-2′-hydroxy-[1,1′-biphenyl]-4-yl)-3-methyl-1H-imidazol-2(3H)-one] | 1 to 10 | 300 to 3000 |
| Cn1ccn(-c2ccc(-c3cc(F)cc(-c4ccnc(-c5ccncc5)c4)c3O)cc2Cl)c1=O [Example 481, 1-(3′-([2,4′-bipyridin]-4-yl)-3-chloro-5′-fluoro-2′-hydroxy-[1,1′-biphenyl]-4-yl)-3-methyl-1H-imidazol-2(3H)-one] | 1 to 10 | 300 to 3000 |
| [2H]C([2H])([2H])n1ccn(-c2ccc(-c3cc(F)cc(-c4ccnc(N5CCNC[C@@H]5C)c4)c3O)cc2Cl)c1=O [Example 482, (S)-1-(3-chloro-5′-fluoro-2′-hydroxy-3′-(2-(2-methylpiperazin-1-yl)pyridin-4-yl)-[1,1′-biphenyl]-4-yl)-3-deuteromethyl-1H-imidazol-2(3H)-one] | 0.01 to 1 | 0.3 to 30 |
| CN1CCN(c2ccc(-c3cc(F)cc(-c4ccnc(N5CCNc6ccccc65)c4)c3O)cc2Cl)C1=O [Example 483, 1-(3-chloro-3′-(2-(3,4-dihydroquinoxalin-1(2H)-yl)pyridin-4-yl)-5′-fluoro-2′-hydroxy-[1,1′-biphenyl]-4-yl)-3-methylimidazolidin-2-one] | > 100 | ≥ 3000 |
| Cn1ccn(-c2ccc(-c3cc(F)cc(-c4cncc(N5CC[C@H](N)C5)c4)c3O)cc2Cl)c1=O [Example 484, (S)-1-(3′-(5-(3-aminopyrrolidin-1-yl)pyridin-3-yl)-3-chloro-5′-fluoro-2′-hydroxy-[1,1′-biphenyl]-4-yl)-3-methyl-1H-imidazol-2(3H)-one] | 1 to 10 | 0.3 to 30 |
| Cn1ccn(-c2ccc(-c3cc(F)cc(-c4ccc(=O)n(C5CCNCC5)c4)c3O)cc2Cl)c1=O [Example 486, 5-(3′-chloro-5-fluoro-2-hydroxy-4′-(3-methyl-2-oxo-2,3-dihydro-1H-imidazol-1-yl)-[1,1′-biphenyl]-3-yl)-1-(piperidin-4-yl)pyridin-2(1H)-one] | 1 to 10 | 30 to 300 |
| Cn1ccn(-c2ccc(-c3cc(F)cc(-c4ccnc(N5CC[C@@H](O)[C@H](N)C5)c4)c3O)cc2Cl)c1=O [Example 487, 1-(3′-(2-((3R,4R)-3-amino-4-hydroxypiperidin-1-yl)pyridin-4-yl)-3-chloro-5′-fluoro-2′-hydroxy-[1,1′-biphenyl]-4-yl)-3-methyl-1H-imidazol-2(3H)-one] | 1 to 10 | 30 to 300 |
| CN1CC2(C1)CN(c1cncc(-c3cc(F)cc(-c4ccc(-n5ccn(C)c5=O)c(Cl)c4)c3O)c1)C2 [Example 488, 1-(3-chloro-5′-fluoro-2′-hydroxy-3′-(5-(6-methyl-2,6-diazaspiro[3.3]heptan-2-yl)pyridin-3-yl)-[1,1′-biphenyl]-4-yl)-3-methyl-1H-imidazol-2(3H)-one] | 1 to 10 | 0.3 to 30 |
| CN1CC2(C1)CN(c1cc(-c3cc(F)cc(-c4ccc(-n5ccn(C)c5=O)c(Cl)c4)c3O)ccn1)C2 [Example 489, 1-(3-chloro-5′-fluoro-2′-hydroxy-3′-(2-(6-methyl-2,6-diazaspiro[3.3]heptan-2-yl)pyridin-4-yl)-[1,1′-biphenyl]-4-yl)-3-methyl-1H-imidazol-2(3H)-one] | 1 to 10 | 0.3 to 30 |
| Cn1ccn(-c2ccc(-c3cc(F)cc(-c4ccnc(N5C[C@@H](N)[C@H](O)C5)c4)c3O)cc2Cl)c1=O [Example 490, 1-(3′-(2-((3R,4R)-3-amino-4-hydroxypyrrolidin-1-yl)pyridin-4-yl)-3-chloro-5′-fluoro-2′-hydroxy-[1,1′-biphenyl]-4-yl)-3-methyl-1H-imidazol-2(3H)-one] | 0.01 to 1 | 0.3 to 30 |
| Cn1ccn(-c2ccc(-c3cc(F)cc(-c4cncc(N5C[C@@H](N)[C@H](O)C5)c4)c3O)cc2Cl)c1=O [Example 491, 1-(3′-(5-((3R,4R)-3-amino-4-hydroxypyrrolidin-1-yl)pyridin-3-yl)-3-chloro-5′-fluoro-2′-hydroxy-[1,1′-biphenyl]-4-yl)-3-methyl-1H-imidazol-2(3H)-one] | 0.01 to 1 | 30 to 300 |
| [2H]C([2H])([2H])n1ccn(-c2ccc(-c3cc(F)cc(-c4ccnc(N5CC6(CNC6)C5)c4)c3O)cc2Cl)c1=O [Example 492, 1-(3′-(2-(2,6-diazaspiro[3.3]heptan-2-yl)pyridin-4-yl)-3-chloro-5′-fluoro-2′-hydroxy-[1,1′-biphenyl]-4-yl)-3-deuteromethyl-1H-imidazol-2(3H)-one] | 1 to 10 | 30 to 300 |
| C[C@@H]1CN(c2cc(-c3cc(F)cc(-c4ccc(-n5ccn(C)c5=O)c(Cl)c4)c3O)ccn2)CCN1C [Example 493, (R)-1-(3-chloro-3′-(2-(3,4-dimethylpiperazin-1-yl)pyridin-4-yl)-5′-fluoro-2′-hydroxy-[1,1′-biphenyl]-4-yl)-3-methyl-1H-imidazol-2(3H)-one] | 0.01 to 1 | 0.3 to 30 |
| CNCc1n[nH]c2ccc(-c3cc(F)cc(-c4ccc(-n5ccn(C)c5=O)c(Cl)c4)c3O)cc12 [Example 494, 1-(3-chloro-5′-fluoro-2′-hydroxy-3′-(3-((methylamino)methyl)-1H-indazol-5-yl)-[1,1′-biphenyl]-4-yl)-3-methyl-1H-imidazol-2(3H)-one] | 1 to 10 | 30 to 300 |
| Cn1ccn(-c2ccc(-c3cc(F)cc(-c4cncc(N5CC[C@@H](O)[C@H](N)C5)c4)c3O)cc2Cl)c1=O [Example 495, 1-(3′-(5-((3R,4R)-3-amino-4-hydroxypiperidin-1-yl)pyridin-3-yl)-3-chloro-5′-fluoro-2′-hydroxy-[1,1′-biphenyl]-4-yl)-3-methyl-1H-imidazol-2(3H)-one] | 1 to 10 | 30 to 300 |
| Cc1cccn(-c2ccc(-c3cc(F)cc(-c4ccnc(N5CCNCC5)c4)c3O)cc2Cl)c1=O [Example 496, 1-(3-chloro-5′-fluoro-2′-hydroxy-3′-(2-(piperazin-1-yl)pyridin-4-yl)-[1,1′-biphenyl]-4-yl)-^3-methylpyridin-2(1H)-one] | > 100 | ≥ 3000 |
| Cn1ccn(-c2ccc(-c3cc(F)cc(-c4ccnc(N5CCC[C@H](CN)C5)c4)c3O)cc2Cl)c1=O [Example 497, (R)-1-(3′-(2-(3-(aminomethyl)piperidin-1-yl)pyridin-4-yl)-3-chloro-5′-fluoro-2′-hydroxy-[1,1′-biphenyl]-4-yl)-3-methyl-1H-imidazol-2(3H)-one] | 1 to 10 | 300 to 3000 |
| Cc1cc(-c2ccnc(N3CC[C@H](N)C3)c2)c(O)c(-c2ccc(-n3ccn(C)c3=O)c(Cl)c2)c1 [Example 498, (S)-1-(3′-(2-(3-aminopyrrolidin-1-yl)pyridin-4-yl)-3-chloro-2′-hydroxy-5′-methyl-[1,1′-biphenyl]-4-yl)-3-methyl-1H-imidazol-2(3H)-one] | 0.01 to 1 | 0.3 to 30 |
| Cn1cnn(-c2ccc(-c3cc(F)cc(-c4ccnc(N5CCNCC5)c4)c3O)cc2Cl)c1=O [Example 499, 1-(3-chloro-5′-fluoro-2′-hydroxy-3′-(2-(piperazin-1-yl)pyridin-4-yl)-[1,1′-biphenyl]-4-yl)-^4-methyl-1H-1,2,4-triazol-5(4H)-one] | 1 to 10 | 30 to 300 |
| Cc1cc(-c2ccnc(N3CCN[C@H](C)C3)c2)c(O)c(-c2ccc(-n3ccn(C)c3=O)c(Cl)c2)c1 [Example 500, (R)-1-(3-chloro-2′-hydroxy-5′-methyl-3′-(2-(3-methylpiperazin-1-yl)pyridin-4-yl)-[1,1′-biphenyl]-4-yl)-3-methyl-1H-imidazol-2(3H)-one] | 1 to 10 | 0.3 to 30 |
| CN(C)[C@H]1CCCN(c2cncc(-c3cc(F)cc(-c4ccc(-n5ccn(C)c5=O)c(Cl)c4)c3O)c2)C1 [Example 501, (S)-1-(3-chloro-3′-(5-(3-(dimethylamino)piperidin-1-yl)pyridin-3-yl)-5′-fluoro-2′-hydroxy-[1,1′-biphenyl]-4-yl)-3-methyl-1H-imidazol-2(3H)-one] | 0.01 to 1 | 0.3 to 30 |
| O=c1ccccn1-c1ccc(-c2cc(F)cc(-c3ccnc(N4CCNCC4)c3)c2O)cc1Cl [Example 502, 1-(3-chloro-5′-fluoro-2′-hydroxy-3′-(2-(piperazin-1-yl)pyridin-4-yl)-[1,1′-biphenyl]-4-yl)pyridin-2(1H)-one] | > 100 | ≥ 3000 |
| CC(=O)Nc1cc(-c2cc(F)cc(-c3ccc(-n4ccn(C)c4=O)c(Cl)c3)c2O)cc(N2CC[C@H](N)C2)n1 [Example 503, (S)-N-(6-(3-aminopyrrolidin-1-yl)-4-(3′-chloro-5-fluoro-2-hydroxy-4′-(3-methyl-2-oxo-2,3-dihydro-1H-imidazol-1-yl)-[1,1′-biphenyl]-3-yl)pyridin-2-yl)acetamide] | 1 to 10 | 0.3 to 30 |
| Cn1ccn(-c2ccc(-c3cc(F)cc(-c4cc(N5CCNCC5)c5nc[nH]c5c4)c3O)cc2Cl)c1=O [Example 504, 1-(3-chloro-5′-fluoro-2′-hydroxy-3′-(4-(piperazin-1-yl)-1H-benzo[d]imidazol-6-yl)-[1,1′-biphenyl]-4-yl)-3-methyl-1H-imidazol-2(3H)-one] | 1 to 10 | 0.3 to 30 |
| O=c1occn1-c1ccc(-c2cc(F)cc(-c3ccnc(N4CCNCC4)c3)c2O)cc1Cl [Example 505, 3-(3-chloro-5′-fluoro-2′-hydroxy-3′-(2-(piperazin-1-yl)pyridin-4-yl)-[1,1′-biphenyl]-4-yl)oxazol-2(3H)-one] | 1 to 10 | 30 to 300 |
